Assay results: patent publication US7361459B2, “Antiviral inhibition of capsid proteins” (University of Maryland, Baltimore County, priority 2002, dated 2008)
Where two headings read alike, the source gives them in different places.

Tests used:
[1] = molecular target: T1, HIV-1 capsid protein N-terminal domain (Human immunodeficiency virus type 1 group M subtype B, UniProt P12493); experiment: 1H-15N HSQC NMR titration, binding to the apical cleft; conditions: for binding to the capsid NTD, from chemical shift changes (in words): 1H-15N HSQC, FIGS. 13-14
T1 construct: DNA encoding the CA N-terminal domain (residues 1-151); made in house
Excerpt: DNA encoding the CA N-terminal domain (residues 1-151) was amplified from HIV-1 cDNA plasmid pNL-4-3 and an oligonucleotide encoding a C-terminal hexahistidine tag was appended to the gene. The DNA was inserted into a p11a expression vector (Novagen, Madison, Wis.), and the protein product was purified by cobalt affinity chromatography (Clontech, Palo Alto, Calif.); MWcalc=17523.0 daltons, MWobs=17523.10±0.44 daltons (electrospray Mass Spectrometry). The plasmid for the full length, native capsid protein was kindly provided by Dr. W. I. Sundquist (University of Utah, Salt Lake City, Utah), and the protein was purified as described. NMR spectra were assigned using conventional triple resonance methods. Binding isotherms from ^1H-^15N NMR HSQC titration experiments were calculated with ORIGIN 7.0 software (MicroCal, Northampton, Mass.).
To identify compounds that inhibit functions of the capsid protein, public domain chemical libraries were screened for compounds that might bind to clefts on the surface of the capsid protein and tested for binding using NMR titration spectroscopy. Screening efforts focused mainly on a β-hairpin cleft that is exposed on the surface of the N-terminal domain of the immature capsid protein but becomes occupied by residues of a β-hairpin that forms after proteolytic cleavage of Gag.
The mature N-terminal domain was titrated with N-(3-chloro-4-methylphenyl)-N′-[2-thioethyl-2′-[5-(dimethylaminomethyl)]-2-methylfuryl ]urea (CAP-1).

U1 cells = experiment: Cell viability / toxicity, MTS cell proliferation assay; conditions: for toxicity (in words): latent infected U1 cells
Method: (§1) U1 cells (5×10^5 cells/ml) were mixed with TNF-α (10 ng/ml, Sigma) for activation of HIV virion production and treated with CAP-1 at different concentrations. Cultures were harvested 72 hours after treatment. Cell viability was measured using the MTS cell proliferation assay (CellTiter 96 Aqueous One Solution Cell Proliferation Assay, Promega, Madison, Wis.). Supernatants were collected, the cell debris removed by low speed centrifugation, and the particles in the supernatants pelleted by microcentrifugation. Infectious units associated with the particles were measured as described in Kimpton, et al., Detection of replication-competent and pseudotyped HIV with a sensitive cell line on the basis of activation of an integrated β-galactosidase gene, J. Virol. 66: 2232-39, 1992, except that β-gal activities were measured using a Tropix Gal-Screen detector system (Applied Biosystems, Foster City, Calif.). Particle-associated RT activities were determined as described in Huang, et al., p6Gag is required for particle production from full length human immunodeficiency virus type 1 molecular clones expressing protease, J. Virol., […]: 6810-18, 1995. Cell lysates and pelleted particles were subjected to SDS-PAGE analysis using AIDS patient sera (AIDS Research and Reference Regent Program, NIAID, NIH). Quantitative p24 (CA) assays were performed with the HIV-1 p24 Antigen Capture ELISA kit (AIDS vaccine program, FCRDC/SAIC/NCI, Frederick, Md.). MAGI cells were washed after viral adsorption (HIV-1RF) with PBS and were fed fresh media containing CAP-1 at various concentrations. 72 hours post-infection, the culture supernatants were harvested and pre-cleared. Virus particles present on the supernatants were collected by microcentrifugation and particle-associated RT activity and infectivity were subsequently measured.
The CAP compounds were tested for toxicity and antiviral activity using HIV-1 producing, latent infected U1 cells. This assay allows assessment of antiviral effects on late phase replication events.

HIV-1 CA = HIV-1 CA (Human immunodeficiency virus type 1 group M subtype B, UniProt P12493); conditions: for initial assembly rate: 350 nm, 21° C., no compound 204±36
Method: Turbidity assays were performed at 21° C. using a Beckman DU650 spectrophotometer operating at 350 nm wavelength. Concentrated ligand in DMSO (0.2 μl) was added to a 250 μl aqueous solution containing the capsid protein ([CA]=60 μM; [NaH2PO4]=50 mM; pH 8.0). Particulates were removed by centrifugation, and capsid assembly was initiated by addition of a concentrated NaCl solution (5 M, 250 μl). Spectral measurements were made every 10 s, following a short initial delay to allow sample equilibration. Relative assembly rates were estimated from initial slopes of the plots of absorbance vs. time.
Tube formation leads to increases in sample turbidity that can be monitored spectrophotometrically, and this assay was used to probe for potential inhibitory effects of the CAP compounds on in vitro capsid assembly.

Gag polyprotein = experiment: p24 (CA) Western blot of Gag and its cleavage products, U1 cells; format: cell-based, HIV-1
Method: as §1, with “72 hours post-infection, the culture supernatants were harvested and pre-cleared.” left out
(§2) To determine if CAP-1 affects viral gene expression and particle production, reverse transcriptase (RT) activity and CA (p24) levels were measured for the supernatants after pelleting and removal of the cells. […] Quantitation of gp120 was also obtained for the supernatant using antibodies against gp120.

HIV-1RF = experiment: Virus particle infectivity and RT activity from infected MAGI cell cultures; format: cell-based
Method: as §1

[2] = test system: HIV-1 capsid core assembly; format: cell-based; conditions: particles from treated U1 cells
Method: Treated (CAP-1) and untreated virus-producing U1 cells were pelleted, washed in phosphate-buffered saline (PBS) and resuspended in at least ten cell pellet volumes of fixative (100 mM sodium cacodylate, pH 7.2, 2.5% glutaraldehyde, 1.6% paraformaldehyde, 0.5% picric acid). Cells were fixed for 24-48 hours, after which fixative was removed and cells were washed twice in PBS and pelleted in eppendorf centrifuge tubes. Washed cell pellets were post-fixed one hour in 1% osmium tetroxide plus 0.8% potassium ferricyanide in 100 mM sodium cacodylate, pH 7.2. After thorough rinsing in water, cells were pre-stained in 4% uranyl acetate one hour, thoroughly rinsed, dehydrated, infiltrated overnight in 1:1 acetone:Epon 812, infiltrated one hour with 100% Epon 812 resin, and embedded in the resin. After polymerization, 60-80 nm thin sections were cut on a Reichert untramicrotome, stained 5 minutes in lead citrate, rinsed, post-stained 30 minutes in uranyl acetate, rinsed and dried. EM was performed at 60 kV on a Philips CM120/Biotwin equipped with a 1024×1024 Gatan multiscan CCD, and images were collected at original magnifications of 25,880×-36,960×, corresponding t resolutions of 8.9 and 6.5 Å/pixel, respectively. For each sample, 4 separate EM grids were viewed, and at least 47 were collected, corresponding to a minimum total area of 35 micron^2.

gp120 = experiment: Quantitation of gp120 in supernatant with antibodies against gp120; format: cell-based, HIV-1
Method: as §2

protease = protease (Human immunodeficiency virus type 1 group M subtype B, UniProt P04585); experiment: In vitro protease activity; format: biochemical
HIV-1 [3] = experiment: Infectious units of particles from latent infected U1 cells; format: cell-based
Method: as §1, with “Cell lysates and pelleted particles were subjected to SDS-PAGE analysis using AIDS patient sera (AIDS Research and Reference Regent Program, NIAID, NIH).” left out, “MAGI cells were washed after viral adsorption (HIV-1RF) with PBS and were fed fresh media containing CAP-1 at various concentrations. 72 hours post-infection, the culture supernatants were harvested and pre-cleared. Virus particles present on the supernatants were collected by microcentrifugation and particle-associated RT activity and infectivity were subsequently measured.” left out

Gag = Gag (Human immunodeficiency virus type 1 group M subtype B, UniProt P12493); experiment: Mass action calculation of CAP-1 bound to CA/Gag in immature virions; parameters: species or system HIV-1
Method: This is likely due to the high local concentration of Gag molecules in assembled virions (14 mM), which favors binding by ligands with even modest affinities, e.g., N-(3-chloro-4-methylphenyl)-N′-[2-thioethyl-2′-[5-(dimethylaminomethyl)]-2-methylfuryl]urea (CAP-1). Thus conservatively assuming that cytosolic drug concentrations in the budding virus and cells are equal (100 μM), the percentage of viral CAP-1 molecules bound to CA can be estimated by standard mass action calculations which affords a value for the concentration of bound CAP-1 ([CA:CAP-1]) of 94 μM.

HIV-1 [4] = experiment: Virus production: particle-associated RT activity and CA (p24) levels in U1 supernatants; format: cell-based; conditions: U1 cells
Method: as §1, with “Cell lysates and pelleted particles were subjected to SDS-PAGE analysis using AIDS patient sera (AIDS Research and Reference Regent Program, NIAID, NIH).” left out, “MAGI cells were washed after viral adsorption (HIV-1RF) with PBS and were fed fresh media containing CAP-1 at various concentrations. 72 hours post-infection, the culture supernatants were harvested and pre-cleared. Virus particles present on the supernatants were collected by microcentrifugation and particle-associated RT activity and infectivity were subsequently measured.” left out

[5] = as a function of increasing CAP-1

N-[(3-chloro-4-methyl phenyl)-N′,N′-propyl] urea [CAP-7]
binding to the capsid NTD, from chemical shift changes (in words) [1]: capsid binding

Cc1ccc(NC(=O)Nc2ccc(C#N)cc2)cc1Cl [CAP-4, N-(3-chloro-4-methylphenyl)-N′-(4-cyanophenyl) urea]
binding to the capsid NTD, from chemical shift changes (in words) [1]: very weak binding

Cc1ccc(NC(=O)Nc2ccc(C(Cl)(Cl)Cl)cc2)cc1Cl [CAP-5, N-(3-chloro-4-methylphenyl)-N′-[4-(1,1,1-trichloromethyl)phenyl] urea]
binding to the capsid NTD, from chemical shift changes (in words) [1]: capsid binding

Cc1ccc(NC(=O)NC(C)C)cc1[N+](=O)[O-] [CAP-3, N-(2-propyl)-N′-(3-nitro-4-methylphenyl) urea]
binding to the capsid NTD, from chemical shift changes (in words) [1]: very weak binding

O=C(Nc1cccc(C(F)(F)F)c1)Nc1ccc(F)c([N+](=O)[O-])c1 [CAP-6, N-(3-nitro-4-fluorophenyl)-N′-[3-(1,1,1-trifluoromethyl)phenyl] urea]
binding to the capsid NTD, from chemical shift changes (in words) [1]: capsid binding

CC(=O)Nc1ccc(NC(=O)Nc2ccc(C)c([N+](=O)[O-])c2)cc1 [CAP-2, N-(4-N-acetamidophenyl)-N′-(3-nitro-4-methylphenyl) urea]
toxicity (in words) (U1 cells; 72 hours): too cytotoxic
binding to the capsid NTD, from chemical shift changes (in words) [1]: bind to the apical site of the protein
Kd ([1]; NMR titration, 1:1 binding isotherms): 52 ± 27 µM
effect on the rate of assembly (in words) (HIV-1 CA): diminished in a dose-dependent manner
initial assembly rate (HIV-1 CA; compound:CA ratio 0.5:1): 81±2 mOD/min
initial assembly rate (HIV-1 CA; compound:CA ratio 1:1): 39±11 mOD/min

Cc1ccc(NC(=O)NCCSCc2ccc(CN(C)C)o2)cc1Cl [CAP-1, N-(3-chloro-4-methylphenyl)-N′-[2-thioethyl-2′-[5-(dimethylaminomethyl)]-2-methylfuryl]urea]
cell viability (in words) (U1 cells; 100 μM, U1 cells, 72 hours): fully viable
tolerability in cell cultures (in words) (U1 cells; cell cultures): particularly well-tolerated
toxicity (in words) (U1 cells; 72 hours): non-toxic
intracellular levels of Gag (p55) (in words) (Gag polyprotein; [5]): reduction
levels of Gag cleavage products p24 and p41 (in words) (Gag polyprotein; [5]): remained relatively unaffected
proteolytic processing of Gag (in words) (Gag polyprotein; p24 Western, treated vs untreated): does not significantly affect
infectious units, of the untreated levels (HIV-1RF; 100 μM, MAGI cells, 72 hours post-infection): less than 2%
viral RT activity (in words) (HIV-1RF; MAGI cells): No reductions
virus production after pre-incubation of MAGI cells or virus particles (in words) (HIV-1RF; pre-incubation with CAP-1): unaffected
particles with a cone-shaped core (in words) [2]: none
particles containing a dense, centrally located core ([2]; untreated 70%): 35%
gp120 in supernatant, treated vs untreated (in words) (gp120): No differences
binding to the capsid NTD, from chemical shift changes (in words) [1]: bind to the apical site of the protein
effect on the rate of assembly (in words) (HIV-1 CA): diminished in a dose-dependent manner
initial assembly rate (HIV-1 CA; compound:CA ratio 1:1): 93±3 mOD/min
initial assembly rate (HIV-1 CA; compound:CA ratio 2:1): 67±16 mOD/min
in vitro protease activity (in words) (protease): did not affect
effect on supernatant infectivity (in words) (HIV-1 [3]): dose dependent reductions
reduction of infectivity relative to untreated samples (HIV-1 [3]; 100 μM, 72 hours): ca. 95%
CAP-1 molecules in immature virions bound to Gag (Gag; 100 μM dose): 94%
concentration of bound CAP-1 ([CA:CAP-1]) (Gag; 100 μM drug, 14 mM Gag in assembled virions): 94 µM
CA (p24) levels of supernatants (in words) (HIV-1 [4]): unaffected
RT activities of supernatants (in words) (HIV-1 [4]): unaffected
